“Also recorded” adds a separate entry of the source. Numbered stars: 1 amine (or outer) side, 2 acyl side, 3 side chain; on linkers, the order of the positions; unused ones are H or OH. Square brackets hold non-standard residues; d marks the D form. Peptide text beside a SMILES is read from it. azaPhe = O=C(N(Cc1ccccc1)N[*:1])[*:2]; azaPro = O=C(N1CCCN1[*:1])[*:2]
What was measured:
3T3 cells = biological target: T1, 3T3 cells (Mus musculus, UniProt P32299); experiment: PGE2 induction in 3T3 fibroblasts (ELISA); assay type: cell-based; settings: 7 min, serum-free medium
T1 sequence (P32299 1-392): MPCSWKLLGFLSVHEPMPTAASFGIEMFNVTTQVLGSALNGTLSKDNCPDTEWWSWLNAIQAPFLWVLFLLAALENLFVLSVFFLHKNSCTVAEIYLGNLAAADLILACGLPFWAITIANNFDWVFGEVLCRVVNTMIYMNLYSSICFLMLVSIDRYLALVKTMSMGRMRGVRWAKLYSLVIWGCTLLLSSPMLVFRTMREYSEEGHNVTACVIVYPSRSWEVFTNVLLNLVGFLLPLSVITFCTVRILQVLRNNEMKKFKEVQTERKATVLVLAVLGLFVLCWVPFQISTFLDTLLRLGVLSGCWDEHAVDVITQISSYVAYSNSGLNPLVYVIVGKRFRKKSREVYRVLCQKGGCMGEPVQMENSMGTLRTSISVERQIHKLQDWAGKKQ
Protocol: Subconfluent monolayers of 3T3 cells were incubated with test compounds for 7 min in serum-free medium and supernatants were collected and analyzed for PGE2 by ELISA.
5.1 In vitro PGE2 induction
3T3 Swiss Albino cell line (ATCC CCL-92) was purchased from American Type Culture Collection (Manassas, VA).
Following trypsinization, cells were washed and resuspended in DMEM-Complete at a cell density of 0.03 x 10^6 cells per ml. Cells were seeded into 96 -well flat-bottomed culture plates (6 x 10^3 cells per well in 200 µl). After one day of culture, 3T3 cell monolayers were washed two times in pre-warmed DMEM supplemented with 20 mM HEPES (DMEM-HEPES) and DMEM-HEPES
supernatants were collected and immediately frozen at -20°C for future PGE2 analyses. PGE2 levels in supernatants were determined using PGE2 ELISA kit (Enzo Life Sciences, Farmingdale, NY) following manufacturer’s instructions. Samples were assayed in quadruplicate. PGE2 ELISA data were analyzed using GraphPad Prism Version 9.3.1.

in vitro = settings: male, C57BL/6J, mouse, blood
murine monocytes = experiment: HMGB1-stimulated TNF release in murine splenic monocytes (ELISA); assay type: cell-based, mouse; settings: 0.1, 1 or 10 µM peptide, HMGB1 1 µg/ml, 24 h
Excerpt: 4.2 HMGB1 protein preparation
For TNF ELISA experiments, […]

[1] = test system: mouse model of acetaminophen-induced liver toxicity; experiment: Acetaminophen (APAP)-induced liver toxicity in mice; assay type: in vivo; settings: vs scrambled peptide; for liver function enzymes and plasma cytokines / pro-inflammatory markers: APAP 200 mg/kg IP, 50 µg/mouse at 2 and 7 hours post-APAP, 24 h; for protection / survival in APAP toxicity model: APAP 400 mg/kg, 50 µg/mouse IP at 2 h post-APAP, then once a day for 5 days
[2] = test system: STZ-induced type 1 diabetic (T1D) mice; experiment: Low-dose streptozotocin (STZ)-induced type 1 diabetes in mice; settings: 500 µg/mouse/day i.p.; for severity of insulitis (insulitis scores): 2 weeks of treatment, H&E; for development of hyperglycemia: vs diabetic (saline) group
Protocol: Data are presented as means ± SD. […] Mice were simultaneously injected i.p. with saline, FSSE (500 µg/mouse/day), or azaF^1SSazaE^4 (500 µg/mouse/day). Blood glucose was measured on day 0, 7 and 14. Number of mice per group: saline n = 7; FSSE n = 8; azaF^1SSazaE^4 n = 8. Data are presented as mean values ± SEM. […] Serum samples from mice challenged with STZ were collected at day 14 and analyzed by ELISA. n = 7 mice per group. Data are presented as mean values ± SEM. […] Number of islets per group: saline n = 3, 13 islets; FSSE n = 2, 11 islets; azaF^1SSazaE^4 n = 3, 23 islets. P-value was calculated using two-sided Fisher’s exact test to compare islets without (score 0) and with (score 1-4) insulitis. Pancreas tissue was histologically analyzed from 2–3 animals per group. Representative hematoxylin and eosin (H&E) stained images of islets from each group are shown (right panel). Scale bars, 50 μm.
given free access to water and standard rodent chow and were acclimated to their environment for at least 1 week before experimentation.
4.5 STZ-induced type 1 diabetes in mice
Induction of Diabetes T1D was induced by administration of streptozotocin (STZ) (Sigma-Aldrich) (50 mg/kg dissolved in sodium citrate buffer, pH 4.5) to 6-8 weeks old C57Bl/6J mice intraperitoneally (i.p.) once each day for 5 consecutive days.
Mice were given water supplemented with 10% sucrose (Sigma-Aldrich) for six days to prevent sudden hypoglycemia during streptozotocin administration.
of FSSE, azaF1SSazaE4 or saline. Blood glucose with either FreeStyle Lite blood glucose meter (Abbot Diabetes Care, Inc.) or Bayer Contour blood glucose meter (Bayer HealthCare, LLC.) and body weight were measured once weekly. At the end of each study, mice were euthanized by CO2 asphyxiation. Blood and pancreas were collected for further analysis.
Pancreas were fixed in 10% formalin and processed for paraffin embedding (AML Laboratory and Genecopoeia). 7-μm-thick sections were stained with hematoxylin/eosin (Genecopoeia) and the degree of insulitis was eva luated microscopically. Islets were analyzed in multiple sections at 20×.

HMGB1/MD-2 binding = biological target: T2, HMGB1/MD-2 binding (Homo sapiens, UniProt Q9Y6Y9); experiment: SPR HMGB1/MD-2 binding inhibition assay; settings: immobilized disulfide HMGB1, MD-2 0.25 µM
T2 construct: purchased R&D Systems 1787-MD
T2 sequence (Q9Y6Y9 17-160 limits assumed): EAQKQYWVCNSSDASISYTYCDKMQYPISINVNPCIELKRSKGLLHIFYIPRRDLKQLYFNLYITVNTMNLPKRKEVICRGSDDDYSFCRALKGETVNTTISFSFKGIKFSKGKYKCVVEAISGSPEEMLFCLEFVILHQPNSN

[3] = biological target: T3, Human B2 (h) receptor (B2R) (Homo sapiens, UniProt P30411); experiment: Human B2 (h) (agonist radioligand) receptor binding assay, [3H]bradykinin displacement
T3 construct: host or cells: CHO cells
T3 sequence (P30411 1-391): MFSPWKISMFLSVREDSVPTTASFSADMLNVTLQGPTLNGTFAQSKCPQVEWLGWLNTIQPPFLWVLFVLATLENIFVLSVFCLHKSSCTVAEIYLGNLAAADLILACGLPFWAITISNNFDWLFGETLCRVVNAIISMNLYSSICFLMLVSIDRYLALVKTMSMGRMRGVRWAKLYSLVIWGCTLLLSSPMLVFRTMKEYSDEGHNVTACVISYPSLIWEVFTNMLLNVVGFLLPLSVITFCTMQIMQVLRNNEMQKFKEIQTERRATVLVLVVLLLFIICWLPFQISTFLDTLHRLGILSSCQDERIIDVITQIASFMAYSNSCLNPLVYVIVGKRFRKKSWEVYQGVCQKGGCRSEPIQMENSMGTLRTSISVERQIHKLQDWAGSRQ
Excerpt: The data was collected by CRO Eurofins Cerep (France) and the result is attached as an additional data file. B2R radioligand agonist binding displacement assay for determination of IC-50.
Test compounds (FI-U / [azaP2, azaF8-BK (70), FI-2V / azaF8-BK (68), and FI-8G / azaP2-BK (63)) were supplied to Eurofins in a blinded manner and run at five concentrations to determine the IC-50’s. Standard company control test compounds were used for assay validation. Experimental assays achieved inhibition of more than 50% and were considered to represent significant effects of the test compounds.
(B2(h)) was used as the agonist for B2R receptor binding. The results are expressed as a percent of control specific binding (measured specific binding /control specific binding)*100, and as a percent inhibition of control specific binding (100 minus (measured specific binding/ control specific binding)*100) obtained in the presence of the test compounds. The IC50 values (concentration causing a half-maximal inhibition of control specific binding) and Hill coefficients (nH) were determined by non-linear regression analysis of the competition curves generated with mean replicate values using Hill equation curve fitting Y=D+[ A-D / 1+(C/C50) nH] where Y = specific binding, A = left asymptote of the curve, D = right asymptote of the curve, C = compound concentration, C50 = IC50, and nH = slope factor. This analysis was performed using software developed at Cerep (Hill software) and validated by comparison with data generated by the commercial software SigmaPlot® 4.0 for […]
The inhibition constants (Ki) were calculated using the Cheng Prusoff equation. Ki=IC50/(1+L/Kd) where L = concentration of radioligand in the assay, and Kd = affinity of the radioligand for the receptor. A scatchard plot is used to determine the Kd. […]
9.1. Experimental Conditions
9.1.1. In Vitro Pharmacology: Binding Assays
Assay Source Ligand Conc. Kd Non Specific Incubation Detection Bibl.
(agonist recombinant (1 µM) RT counting
9.2. Analysis and expression of results
9.2.1. In Vitro Pharmacology: Binding Assays
The results are expressed as a percent of control specific binding measured specific binding *100 […]
and as a percent inhibition of control specific binding
100-( measured specific binding *100) […]
obtained in the presence of the test compounds.
The IC50 values (concentration causing a half-maximal inhibition of control specific binding) and Hill coefficients (nH) were determined by non-linear regression analysis of the competition curves generated with mean replicate values using Hill equation […]
where Y = specific binding, A = left asymptote of the curve, D = right asymptote of the curve, C = compound concentration, C50 = IC50, and nH = slope factor. This analysis was performed using software developed at Cerep (Hill software) and validated by […]
The inhibition constants (Ki ) were calculated using the Cheng Prusoff equation where L = concentration of radioligand in the assay, and KD = affinity of the radioligand for the receptor. A scatchard plot is used to […]

Compound	EC50 (3T3 cells) [µM]	half-life (in vitro) [min]	IC50 [3] [µM]	Ki [3] [µM]	% Inhibition of Control Specific Binding, 1st ([3]; 1.0E-06 M) [%]	% Inhibition of Control Specific Binding, 2nd ([3]; 1.0E-06 M) [%]	% Inhibition of Control Specific Binding, Mean ([3]; 1.0E-06 M) [%]	% Inhibition of Control Specific Binding, 1st ([3]; 1.0E-07 M) [%]	% Inhibition of Control Specific Binding, 2nd ([3]; 1.0E-07 M) [%]	% Inhibition of Control Specific Binding, Mean ([3]; 1.0E-07 M) [%]	% Inhibition of Control Specific Binding, 1st ([3]; 1.0E-08 M) [%]	% Inhibition of Control Specific Binding, 2nd ([3]; 1.0E-08 M) [%]	% Inhibition of Control Specific Binding, Mean ([3]; 1.0E-08 M) [%]	% Inhibition of Control Specific Binding, 1st ([3]; 1.0E-09 M) [%]	% Inhibition of Control Specific Binding, 2nd ([3]; 1.0E-09 M) [%]	% Inhibition of Control Specific Binding, Mean ([3]; 1.0E-09 M) [%]	% Inhibition of Control Specific Binding, 1st ([3]; 3.0E-08 M) [%]	% Inhibition of Control Specific Binding, 2nd ([3]; 3.0E-08 M) [%]	% Inhibition of Control Specific Binding, Mean ([3]; 3.0E-08 M) [%]	other results
NC(N)=NCCC[C@H](NC(=O)[C@H](Cc1ccccc1)NC(=O)[C@@H]1CCCN1C(=O)[C@H](CO)NC(=O)[C@H](Cc1ccccc1)NC(=O)CNC(=O)[C@@H]1CCCN1C(=O)[C@@H]1CCCN1C(=O)[C@@H](N)CCCN=C(N)N)C(=O)O [Bradykinin, reference compound] (H-RPPGFSPFR-OH)	0.0444	5.29 ± 0.5																		
NC(=O)N(CCC(=O)O)NC(=O)[C@H](CO)NC(=O)[C@H](CO)NC(=O)N(N)Cc1ccccc1 [Compound 51, azaF^1SSazaE^4-NH2]		> 120																		HMGB1-induced TNF production (murine monocytes): dose-dependently reduced; liver function enzymes and plasma cytokines / pro-inflammatory markers [1]: improved liver function enzymes as well as plasma cytokines; liver function enzymes and plasma cytokines / pro-inflammatory markers ([1]; listed as azaF1SSazaE4): reduced APAP-induced pro-inflammatory markers and serum liver enzymes; protection / survival in APAP toxicity model [1]: protective; protection / survival in APAP toxicity model ([1]; listed as azaF1SSazaE4): improves survival; longer half-life than native FSSE peptide (mouse whole blood): > 60 fold; diabetes-induced body weight loss [2]: hindered diabetes-induced body weight loss; severity of insulitis (insulitis scores) [2]: much lower than that of FSSE-treated mice; also recorded: reduced; level of blood glucose ([2]; day 7 and 14): significantly attenuated; serum levels of insulin ([2]; day 14, ELISA): successfully restored; development of hyperglycemia [2]: delayed the development of hyperglycemia
NC(=O)CCN(NC(=O)[C@H](CO)NC(=O)[C@H](CO)NC(=O)[C@@H](N)Cc1ccccc1)C(N)=O [Compound 58, FSSazaQ^4-NH2]																				IC50 (HMGB1/MD-2 binding): 0.423 µM; half-life (in vitro; Ex-vivo stability t 1/2): 2.9 ± 0.2 min
N=C(N)NCCC[C@H](NC(=O)[C@H](Cc1ccccc1)NC(=O)[C@@H]1CCCN1C(=O)[C@H](CO)NC(=O)[C@H](Cc1ccccc1)NC(=O)CNC(=O)[C@@H]1CCCN1C(=O)N1CCCN1C(=O)[C@@H](N)CCCNC(=N)N)C(=O)O [Compound 63, RazaP^2PGFSPFR] (H-R[azaPro]PGFSPFR-OH; N-terminus and C-terminus assumed)	0.0611	5.4 ± 1.1	0.0079	0.0045	98.9	98.6	98.8	94.6	95.1	94.9	58.5	56.4	57.4	0.2	-3.4	-1.6	86.3	63.9	75.1	
N=C(N)NCCC[C@H](NC(=O)N(Cc1ccccc1)NC(=O)[C@@H]1CCCN1C(=O)[C@H](CO)NC(=O)[C@H](Cc1ccccc1)NC(=O)CNC(=O)[C@@H]1CCCN1C(=O)[C@@H]1CCCN1C(=O)[C@@H](N)CCCNC(=N)N)C(=O)O [Compound 68, RPPGFSPazaF^8R] (H-RPPGFSP[azaPhe]R-OH; N-terminus and C-terminus assumed)	0.0996	39.3 ± 2.5	0.0088	0.0041	99.7	100.1	99.9	98.0	95.2	96.6	61.5	66.7	64.1	8.0	2.9	5.4	72.4	64.6	68.5	
N=C(N)NCCC[C@H](NC(=O)N(Cc1ccccc1)NC(=O)[C@@H]1CCCN1C(=O)[C@H](CO)NC(=O)[C@H](Cc1ccccc1)NC(=O)CNC(=O)[C@@H]1CCCN1C(=O)N1CCCN1C(=O)[C@@H](N)CCCNC(=N)N)C(=O)O [Compound 70, RazaP^2PGFSPazaF^8R] (H-R[azaPro]PGFSP[azaPhe]R-OH; N-terminus and C-terminus assumed)	0.0806	29.2 ± 3.8	0.011	0.0056	97.1	99.5	98.3	84.7	91.4	88.1	36.3	48.4	42.3	-9.2	8.0	-0.6	67.6	73.7	70.6	
NC(=O)[C@H](CCC(=O)O)NC(=O)[C@H](CO)NC(=O)[C@H](CO)NC(=O)[C@@H](N)Cc1ccccc1 [FSSE-NH2 (P5779), FSSE-NH2, reference compound]																				HMGB1-induced TNF production (murine monocytes): dose-dependently reduced; Ex-vivo stability t 1/2 (male, C57BL/6J, mouse, blood): 2.0 ± 0.06 min; half-life (in vitro; Ex-vivo stability t 1/2): < 2 min; severity of insulitis (insulitis scores) [2]: reduced; development of hyperglycemia [2]: no significant effect
